In the experiment the target is T1, Purified recombinant NBD1 (Homo sapiens, UniProt P13569).
T1 construct: Purified recombinant NBD1 was produced using previously described methods; made in house
T1 sequence (P13569 423-646 limits assumed): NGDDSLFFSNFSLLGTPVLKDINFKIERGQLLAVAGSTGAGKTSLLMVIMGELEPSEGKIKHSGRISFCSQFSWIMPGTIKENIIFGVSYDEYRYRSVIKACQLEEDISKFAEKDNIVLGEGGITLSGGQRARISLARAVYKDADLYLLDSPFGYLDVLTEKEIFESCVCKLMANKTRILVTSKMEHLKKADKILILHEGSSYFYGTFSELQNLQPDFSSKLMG
Nature of the experiment: Aggregation analysis using differential static light scattering (DSLS): thermal stability of NBD1. The experiment is classed as binding. Conditions: NBD1 0.2 mg/ml; Tagg of compound well minus average Tagg of DMSO control wells. As for the experimental part: Purified recombinant NBD1 was produced using previously described methods (A. Schmidt, J. L. Mendoza, P. J. Thomas (2011) Biochemical and Biophysical Approaches to Probe CFTR Structure (365-376) M. D. Amaral, K. Kunzelmann (eds.), Cystic Fibrosis, Methods in Molecular Biology 741, Springer Science+Business Media). The effect of test compounds on thermal stability of NBD1 was evaluated by differential static light scattering (DSLS) using the Harbinger Stargazer-384 instrument (Epiphyte Three, Toronto, Canada). Test compounds were dissolved and diluted to desired concentrations in 100% DMSO. The compounds or DMSO controls (100 nL) were stamped into wells of a […] low volume optical plate (Corning Inc., Corning, NY) using the Echo 555 acoustic liquid handler (Labcyte Inc., San Jose, CA).
NBD1 protein was diluted to 0.2 mg/ml in S200 buffer (50 mM Tris-HCl, 150 mM NaCl, 5 mM MgCl2, 2 mM ATP, 2 mM DTT, pH7.6) containing 1% glycerol. 10 uL of protein solution was aliquoted into the 384-well plate harboring the test compounds and 10 uL mineral oil was overlaid onto the protein solution, using the epMotion robotic liquid handler (Eppendorf North America, Hauppauge, NY). After placing into the Stargazer instrument, the plate was heated at 1° C. per minute to 70° C. Images were captured from 25° C. to 70° C. every 0.5° C. At the end of the experiment run, instrument software integrated image files and analyzed data automatically. A […] regression curve was generated for each well, representing the increase in light scattering over time. A temperature of aggregation (Tagg) was calculated based on the inflection point of the curve. To better compare data across experiments the average Tagg for DMSO control wells was calculated and subtracted from values for wells containing compounds to obtain a “ΔTagg” value. These ΔTagg values reflect stabilizing efficacy of the compounds. As set forth in Table 2 below, an ΔTagg value less than or equal to 5° C. is marked “A”; a value above 5° C. and less than or equal to 10° C. is marked “B”; a value greater than 10° C. and less than or equal to 25° C. is marked “C”.
As to `CN1Cc2c(c(F)cc3[nH]ccc23)Oc2ccc(F)c(c2)-c2ncc([nH]2)C(c2cccc(CCC(=O)O)c2)CCCCCCC1=O` (stereo not drawn) [Compound 9, 3-[3-(23,29-Difluoro-14-methyl-13-oxo-25-oxa-3,14,20,31-tetrazapentacyclo[24.3.1.12,5.016,24.017,21]hentriaconta-1(30),2,4,16(24),17(21),18,22,26,28-nonaen-6-yl)phenyl]propanoic acid], the “DSLS (ΔTagg)” value was “C (a value greater than 10 °C and less than or equal to 25 °C is marked “C”)”. On to `CC1(c2cccc(CCC(=O)O)c2)CCCCC(=O)NCCc2c(c(F)cc3[nH]ccc23)Oc2ccc(F)c(c2)-c2ncc1[nH]2` (stereo not drawn) [Compound 16, 3-[3-(22,28-Difluoro-6-methyl-11-oxo-24-oxa-3,12,19,30-tetrazapentacyclo[23.3.1.12,5.015,23.016,20]triaconta-1(29),2,4,15,17,20,22,25,27-nonaen-6-yl)phenyl]propanoic acid], for which the “DSLS (ΔTagg)” value is “C (a value greater than 10 °C and less than or equal to 25 °C is marked “C”)”. Then `O=C(O)CCc1cccc(C2CCCC(=O)NCCCc3c(c(F)cc4[nH]ccc34)Oc3ccc(F)c(c3)-c3ncc2[nH]3)c1` (stereo not drawn) [Compound 11, 3-[3-(22,28-Difluoro-10-oxo-24-oxa-3,11,19,30-tetrazapentacyclo[23.3.1.12,5.015,23.016,20]triaconta-1(28),2,4,15(23),16(20),17,21,25(29),26-nonaen-6-yl)phenyl]propanoic acid], with “C (a value greater than 10 °C and less than or equal to 25 °C is marked “C”)”; and `O=C1CCc2c(c(F)cc3[nH]ccc23)Oc2ccc(F)c(c2)-c2ncc([nH]2)C(c2ccccc2)CCCCCN1` (stereo not drawn) [Compound 2, 23,29-Difluoro-6-phenyl-25-oxa-3,12,20,31-tetrazapentacyclo[24.3.1.12,5.016,24.017,21]hentriaconta-1(30),2,4,16,18,21,23,26,28-nonaen-13-one], with “C (a value greater than 10 °C and less than or equal to 25 °C is marked “C”)”; and `CC(Cc1cccc(C2CCCCCN(C)C(=O)CCc3c(c(F)cc4[nH]ccc34)Oc3ccc(F)c(c3)-c3ncc2[nH]3)c1)C(=O)O` (stereo not drawn) [Compound 22, 3-[3-(23,29-Difluoro-12-methyl-13-oxo-25-oxa-3,12,20,31-tetrazapentacyclo[24.3.1.12,5.016,24.017,21]hentriaconta-1(30),2,4,16,18,21,23,26,28-nonaen-6-yl)phenyl]-2-methyl-propanoic acid], with “C (a value greater than 10 °C and less than or equal to 25 °C is marked “C”)”. `CCOC(=O)CCc1cccc(C2(C)CCCC(C)(C)CN(C)C(=O)CCc3c(c(F)cc4[nH]ccc34)Oc3ccc(F)c(c3)-c3ncc2[nH]3)c1` (single isomer, unassigned) [Compound 48A, ethyl 3-[3-(23,29-difluoro-6,10,10,12-tetramethyl-13-oxo-25-oxa-3,12,20,31-tetrazapentacyclo-[24.3.1.12,5.016,24.017,21]hentriaconta-1(30),2,4,16,18,21,23,26,28-nonaen-6-yl)phenyl]propanoate]: the “DSLS (ΔTagg)” value is “A (an ΔTagg value less than or equal to 5 °C is marked “A”)”. Regarding `CN1CCOCC(C)(c2cccc(CCC(=O)O)c2)c2cnc([nH]2)-c2cc(ccc2F)Oc2c(F)cc3[nH]ccc3c2CCC1=O` (stereo not drawn) [Compound 19, 3-[3-(22,28-Difluoro-6,11-dimethyl-12-oxo-8,24-dioxa-3,11,19,30-tetrazapentacyclo[23.3.1.12,5.015,23.016,20]triaconta-1(29),2,4,15,17,20,22,25,27-nonaen-6-yl)phenyl]propanoic acid], the “DSLS (ΔTagg)” value was “C (a value greater than 10 °C and less than or equal to 25 °C is marked “C”)”. In the case of `CCOC(=O)CCc1cccc(C2(C)CCCC(C)(C)CN(C)C(=O)CCc3c(c(F)cc4[nH]ccc34)Oc3ccc(F)c(c3)-c3ncc2[nH]3)c1` (single isomer, unassigned) [Compound 48B, ethyl 3-[3-(23,29-difluoro-6,10,10,12-tetramethyl-13-oxo-25-oxa-3,12,20,31-tetrazapentacyclo-[24.3.1.12,5.016,24.017,21]hentriaconta-1(30),2,4,16,18,21,23,26,28-nonaen-6-yl)phenyl]propanoate], the “DSLS (ΔTagg)” value is “A (an ΔTagg value less than or equal to 5 °C is marked “A”)”.

`CN1CC(C)(C)COCC(C)(c2cccc(CCC(=O)O)c2)c2cnc([nH]2)-c2cc(ccc2F)Oc2c(F)cc3[nH]ccc3c2CCC1=O` (racemic) [Compound 20A, 3-[3-(23,29-Difluoro-6,10,10,12-tetramethyl-13-oxo-8,25-dioxa-3,12,20,31-tetrazapentacyclo[24.3.1.12,5.016,24.017,21]hentriaconta-1(30),2,4,16,18,21,23,26,28-nonaen-6-yl)phenyl]propanoic acid]: the “DSLS (ΔTagg)” value was “C (a value greater than 10 °C and less than or equal to 25 °C is marked “C”)”. As to `O=C(O)CCc1cccc(C2CCC(F)(F)CNC(=O)CCc3c(c(F)cc4[nH]ccc34)Oc3ccc(F)c(c3)-c3ncc2[nH]3)c1` (stereo not drawn) [Compound 15, 3-[3-(9,9,22,28-Tetrafluoro-12-oxo-24-oxa-3,11,19,30-tetrazapentacyclo[23.3.1.12,5.015,23.016,20]triaconta-1(28),2,4,15(23),16(20),17,21,25(29),26-nonaen-6-yl)phenyl]propanoic acid], the “DSLS (ΔTagg)” value was “C (a value greater than 10 °C and less than or equal to 25 °C is marked “C”)”. Regarding `O=C(O)CCc1cccc(C2CCCCCCNC(=O)Cc3c(c(F)cc4[nH]ccc34)Oc3ccc(F)c(c3)-c3ncc2[nH]3)c1` (stereo not drawn) [Compound 6, 3-[3-(23,29-Difluoro-14-oxo-25-oxa-3,13,20,31-tetrazapentacyclo-[24.3.1.12,5.016,24.017,21]hentriaconta-1(30),2,4,16,18,21,23,26,28-nonaen-6-yl)phenyl]propanoic acid], the “DSLS (ΔTagg)” value is “C (a value greater than 10 °C and less than or equal to 25 °C is marked “C”)”. As to `CN1CCCCCC(C)(c2cccc(CCC(=O)O)c2)c2cnc([nH]2)-c2cc(ccc2F)Oc2c(F)cc3[nH]ccc3c2CC(C)(C)C1=O` (stereo not drawn) [Compound 18, 3-[3-(23,29-Difluoro-6,12,14,14-tetramethyl-13-oxo-25-oxa-3,12,20,31-tetrazapentacyclo[24.3.1.12,5.016,24.017,21]hentriaconta-1(30),2,4,16,18,21,23,26,28-nonaen-6-yl)phenyl]propanoic acid], the “DSLS (ΔTagg)” value is “A (an ΔTagg value less than or equal to 5 °C is marked “A”)”.

With `CC1(c2ccccc2)CCC(=O)NCCCCc2c(c(F)cc3[nH]ccc23)Oc2ccc(F)c(c2)-c2ncc1[nH]2` (stereo not drawn) [Compound 25, 22,28-Difluoro-6-methyl-6-phenyl-24-oxa-3,10,19,30-tetrazapentacyclo[23.3.1.12,5.015,23.016,20]triaconta-1(29),2,4,15,17,20,22,25,27-nonaen-9-one], the “DSLS (ΔTagg)” value is “B (a value above 5 °C and less than or equal to 10 °C is marked “B”)”.

Take `CN1CC(O)CCCC(C)(c2cccc(CCC(=O)O)c2)c2cnc([nH]2)-c2cc(ccc2F)Oc2c(F)cc3[nH]ccc3c2CCC1=O` (stereo not drawn) [Compound 104, 3-[3-(23,29-Difluoro-10-hydroxy-6,12-dimethyl-13-oxo-25-oxa-3,12,20,31-tetrazapentacyclo[24.3.1.12,5.016,24.017,21]hentriaconta-1(30),2,4,16,18,21,23,26,28-nonaen-6-yl)phenyl]propanoic acid]: the “DSLS (ΔTagg)” value is “C (a value greater than 10 °C and less than or equal to 25 °C is marked “C”)”.

On to `CC1(C)CCCC(C)(c2cccc(CCC(=O)O)c2)c2cnc([nH]2)-c2cc(ccc2F)Oc2c(F)cc3[nH]ccc3c2CCC(=O)NC1` (stereo not drawn) [Compound 12, 3-[3-(23,29-Difluoro-6,10,10-trimethyl-13-oxo-25-oxa-3,12,20,31-tetrazapentacyclo[24.3.1.12,5.016,24.017,21]hentriaconta-1(30),2,4,16,18,21,23,26,28-nonaen-6-yl)phenyl]propanoic acid], for which the “DSLS (ΔTagg)” value was “C (a value greater than 10 °C and less than or equal to 25 °C is marked “C”)”.

The values are drawn from patent US20250197420A1, “MACROCYCLIC COMPOUNDS, COMPOSITIONS, AND METHODS OF USING THEREOF” (Sionna Therapeutics Inc., priority 2022, published 2025).
